Data from the NIST ThermoML archive (doi:10.1016/j.tca.2018.11.018).

Experiment: xn = mol fraction of the nth substance listed
Conditions: 100 kPa, Liquid; for viscosity: Falling or rolling sphere viscometry; for mass density: Vibrating tube method

CCCC[n+]1ccccc1.[Br-] [1-butylpyridinium bromide] + O
Conditions	mass density [kg/m3]	viscosity [mPa·s]
298.15 K, x1 = 0.03	1068.5	1.544
298.15 K, x1 = 0.06	1118.5	2.378
298.15 K, x1 = 0.09	1154.8	3.424
298.15 K, x1 = 0.13	1189.9	5.218
298.15 K, x1 = 0.17	1214.8	8.606
298.15 K, x1 = 0.211	1233.8	12.22
298.15 K, x1 = 0.25	1247.8	16.44
298.15 K, x1 = 0.291	1259.5	24.37
298.15 K, x1 = 0.332	1268.9	30.3
298.15 K, x1 = 0.377	1277.4	42.55
303.15 K, x1 = 0.03	1066.2	1.36
303.15 K, x1 = 0.06	1115.6	2.067
303.15 K, x1 = 0.09	1151.6	2.951
303.15 K, x1 = 0.13	1186.5	4.45
303.15 K, x1 = 0.17	1211.3	7.401
303.15 K, x1 = 0.211	1230.3	10.37
303.15 K, x1 = 0.25	1244.4	13.83
303.15 K, x1 = 0.291	1256.1	18.59
303.15 K, x1 = 0.332	1265.6	24.78
303.15 K, x1 = 0.377	1274	34.24
308.15 K, x1 = 0.03	1063.8	1.212
308.15 K, x1 = 0.06	1112.6	1.82
308.15 K, x1 = 0.09	1148.3	2.575
308.15 K, x1 = 0.13	1183	3.851
308.15 K, x1 = 0.17	1207.8	6.345
308.15 K, x1 = 0.211	1226.8	8.845
308.15 K, x1 = 0.25	1240.9	11.68
308.15 K, x1 = 0.291	1252.7	15.55
308.15 K, x1 = 0.332	1262.2	20.41
308.15 K, x1 = 0.377	1270.7	27.78
313.15 K, x1 = 0.03	1061.2	1.089
313.15 K, x1 = 0.06	1109.6	1.617
313.15 K, x1 = 0.09	1145	2.268
313.15 K, x1 = 0.13	1179.5	3.356
313.15 K, x1 = 0.17	1204.2	5.426
313.15 K, x1 = 0.211	1223.3	7.548
313.15 K, x1 = 0.25	1237.5	10.01
313.15 K, x1 = 0.291	1249.3	13.05
313.15 K, x1 = 0.332	1258.8	16.97
313.15 K, x1 = 0.377	1267.3	22.77
318.15 K, x1 = 0.03	1058.6	0.985
318.15 K, x1 = 0.06	1106.4	1.447
318.15 K, x1 = 0.09	1141.6	2.014
318.15 K, x1 = 0.13	1176	2.954
318.15 K, x1 = 0.17	1200.7	4.671
318.15 K, x1 = 0.211	1219.8	6.488
318.15 K, x1 = 0.25	1234	8.493
318.15 K, x1 = 0.291	1245.9	11.08
318.15 K, x1 = 0.332	1255.4	14.29
318.15 K, x1 = 0.377	1264	18.95
323.15 K, x1 = 0.03	1055.7	0.897
323.15 K, x1 = 0.06	1103.2	1.306
323.15 K, x1 = 0.09	1138.1	1.805
323.15 K, x1 = 0.13	1172.4	2.617
323.15 K, x1 = 0.17	1197.1	4.051
323.15 K, x1 = 0.211	1216.3	5.616
323.15 K, x1 = 0.25	1230.5	7.331
323.15 K, x1 = 0.291	1242.4	9.521
323.15 K, x1 = 0.332	1252	12.17
323.15 K, x1 = 0.377	1260.6	15.95
328.15 K, x1 = 0.03	1052.8	0.822
328.15 K, x1 = 0.06	1099.9	1.185
328.15 K, x1 = 0.09	1134.7	1.623
328.15 K, x1 = 0.13	1168.8	2.359
328.15 K, x1 = 0.17	1193.5	3.564
328.15 K, x1 = 0.211	1212.7	4.914
328.15 K, x1 = 0.25	1227	6.394
328.15 K, x1 = 0.291	1239	8.281
328.15 K, x1 = 0.332	1248.6	10.52
328.15 K, x1 = 0.377	1257.3	13.65
333.15 K, x1 = 0.03	1049.9	0.758
333.15 K, x1 = 0.06	1096.5	1.081
333.15 K, x1 = 0.09	1131.1	1.474
333.15 K, x1 = 0.13	1165.2	2.113
333.15 K, x1 = 0.17	1189.9	3.178
333.15 K, x1 = 0.211	1209.1	4.327
333.15 K, x1 = 0.25	1223.4	5.626
333.15 K, x1 = 0.291	1235.5	7.256
333.15 K, x1 = 0.332	1245.4	9.187
333.15 K, x1 = 0.377	1253.9	11.84
338.15 K, x1 = 0.03	1046.6	0.704
338.15 K, x1 = 0.06	1092.8	1.002
338.15 K, x1 = 0.09	1127.5	1.353
338.15 K, x1 = 0.13	1161.5	1.912
338.15 K, x1 = 0.17	1186.2	2.852
338.15 K, x1 = 0.211	1205.5	3.835
338.15 K, x1 = 0.25	1219.9	4.96
338.15 K, x1 = 0.291	1232	6.395
338.15 K, x1 = 0.332	1241.8	8.064
338.15 K, x1 = 0.377	1250.6	10.31
343.15 K, x1 = 0.03	1043.2	0.66
343.15 K, x1 = 0.06	1089.5	0.92
343.15 K, x1 = 0.09	1123.9	1.235
343.15 K, x1 = 0.13	1157.8	1.741
343.15 K, x1 = 0.17	1182.6	2.367
343.15 K, x1 = 0.211	1201.9	3.463
343.15 K, x1 = 0.25	1216.3	4.428
343.15 K, x1 = 0.291	1228.5	5.687
343.15 K, x1 = 0.332	1238.3	7.153
343.15 K, x1 = 0.377	1247.2	9.118
348.15 K, x1 = 0.03	1039.8	0.618
348.15 K, x1 = 0.06	1086	0.862
348.15 K, x1 = 0.09	1120.1	1.139
348.15 K, x1 = 0.13	1154.1	1.591
348.15 K, x1 = 0.17	1178.9	2.149
348.15 K, x1 = 0.211	1198.3	3.138
348.15 K, x1 = 0.25	1212.8	3.971
348.15 K, x1 = 0.291	1225	5.06
348.15 K, x1 = 0.332	1234.9	6.384
348.15 K, x1 = 0.377	1243.8	8.095
